Like-named read-outs stand apart in the source and are kept apart here. Where no end group is shown, it is not given here.
Experiments:
HBV particles = test: HBV virus capture assay; type: binding, Hepatitis B virus; settings: 1 × 10^6 viruses per well from pooled HBV positive serum; 4 °C for 4 h; HRP-labeled HBsAg antibody, absorbance at 450 nm
Procedure: (§1) The N-biotinylated B10 monomer or concatemers (Fig. 1A) (2 μg/well) was applied into the streptavidin-coated wells and incubated for 45 minutes at room temperature. Wells were washed with PBST (0.05% Tween 20 in PBS). […] Excess preS1/2-48^myr-FITC peptides were removed with PBST. Fluorescence intensity was then measured using a VICTOR X multilabel reader (Perkin Elmer, Waltham, MA). In virus capture assays, 1 × 10^6 viruses from pooled HBV positive serum (Ruijin Hospital, Shanghai) were applied per well. After incubation at 4 °C for 4 hours, wells were washed and 100 μl of horseradish peroxidase-labeled HBsAg antibody (Kehua, Shanghai, China) was added and incubated for 1 hour at room temperature. The absorbance at 450 nm was measured.

PHH = settings: 0.05 nM to 500 μM; 24 h; CellTiter-Glo
Procedure: PHH and PTH were seeded into collagen-coated 96-well plates at 5 × 10^4 cells per well.

HBV infection of PTH [1] = test: Intracellular HBcAg expression in HBV-infected PTH (immunofluorescence); type: cell-based, Hepatitis B virus; settings: day 12 post-infection
Procedure: (§2) All infections were repeated at least twice.
(§3) PHH at 14 days post infection and PTH at 12 days post infection were washed 3 times with ice-cold PBS and fixed in 3.7% paraformaldehyde in PBS for 15 min at room temperature. Cells were washed, permeabilized with 0.5% Triton X-100 in PBS, washed again and incubated in 1% BSA in PBST for 30 minutes at room temperature. Cells were then stained with a polyclonal rabbit anti-HBcAg (1:700 dilution, Dako, Inc, Carpinteria, CA) overnight at 4 °C in a humidified chamber. After washing, PHH and PTH were incubated with Alexa Fluor 488 goat anti-rabbit IgG (H+L) and Alexa Fluor 546 goat anti-rabbit IgG (H+L) (1:1000 dilution, Life Technologies, USA) for 1 hour at room temperature in dark, respectively. After 3 washes in dark, cells were stained with DAPI for 10 minutes at room temperature. For detection of HBV attached to PMH and HepG2 cells, cells were stained with a mouse monoclonal anti-HBsAg (1:1000 dilution, Dako) followed by Alexa Fluor 488 goat anti-mouse IgG (H+L) (1:1000 dilution, Life Technologies). Cells were examined under a confocal microscope (Leica Biosystems).

preS1/2-48^myr = test: preS1/2-48^myr-FITC binding to immobilized N-biotinylated B10 monomer/concatemers; design: species or system HBV (genotype D); settings: N-biotinylated peptide 2 μg/well on streptavidin-coated wells; 1 h at room temperature; fluorescence
Procedure: as §1

[2] = system: binding of preS1/2-48^myr-FITC to PMH; test: Inhibition of preS1/2-48^myr-FITC binding to PMH; type: cell-based, mouse (C57BL/6); settings: 0.5 μM preS1/2-48^myr-FITC, 100 μM peptide (200-fold molar excess), 4 h at 37 °C; confocal microscopy
Procedure: PMH and HepG2 cells were seeded into 12-well plates at a density of 1 × 10^5 cells per well and cultured in WEM and DMEM without FBS respectively. […] Cell nuclei were stained with DAPI (4′6′-diamidino-2-phenylindole) (Sangon, Shanghai, China) for 10 minutes at room temperature. Cells were examined using a confocal microscope (Leica Biosystems, Germany).

HBV infection of PHH [3] = test: Intracellular HBcAg expression in HBV-infected PHH (immunofluorescence); type: cell-based, Hepatitis B virus; settings: day 14 post-infection
Procedure: as §2, §3

HBV attachment to PMH [4] = test: HBV attachment to PMH (real-time PCR); type: cell-based, Hepatitis B virus; settings: 1 × 10^7 GE/well viruses pre-incubated 30 min at 37 °C, 4 h at 37 °C, triplicate, repeated at least three times
Procedure: (§4) For HBV attachment assays, viruses in HepAD38 supernatants were precipitated in 10% polyethylene glycol (PEG) 8000 (Sangon) for 16 hours at 4 °C, centrifuged at 7,000 × g for 1 hour at 4 °C and resuspended in DMEM. Viral titers were determined using a real-time PCR kit (Qiagen, Düsseldorf, Germany) and represented as genome equivalent per milliliter (GE/ml). […] After incubation at 37 °C for 4 hours, cells were washed repeatedly with ice-cold PBS. Viral DNA was prepared from cell lysate with DNeasy Blood Kit (Qiagen) and quantified using real-time PCR with primers 5′-[…] -3′ and 5′-[…] -3′.

PMH = settings: 4B10 0.01 μM, 1 μM and 100 μM, or LA-20; 72 h; CCK-8
Procedure: (§5) To rule out potential cytotoxicity of the peptides, the viability of cells exposed to 4B10 (0.01 μM, 1 μM and 100 μM) or LA-20 for 72 hours was analyzed.
(§6) For PTH, cells were cultured in medium containing 4B10 and LA-20 (0.01 μM, 1 μM or 100 μM) and viability measured using cell counting kit-8 (CCK-8) (Dojindo, Japan).

[5] = system: VSV-G pseudotyped lentivirus; type: cell-based
HBV attachment to PMH [6] = test: HBV attachment to PMH (immunofluorescent staining of cell-bound HBsAg); type: cell-based, Hepatitis B virus; settings: 1 μM; immunofluorescence
Procedure: as §4
as §3, with “For detection of HBV attached to PMH and HepG2 cells, cells were stained with a mouse monoclonal anti-HBsAg (1:1000 dilution, Dako) followed by Alexa Fluor 488 goat anti-mouse IgG (H+L) (1:1000 dilution, Life Technologies). Cells were examined under a confocal microscope (Leica Biosystems).” left out

[7] = system: HBV attachment to HepG2 cells; test: HBV attachment to HepG2 cells; type: cell-based, Hepatitis B virus; settings: real-time PCR and immunofluorescent staining of HBsAg; viruses pre-incubated with 4B10 0.1 nM, 10 nM or 1 μM
Procedure: as §4
as §3, with “For detection of HBV attached to PMH and HepG2 cells, cells were stained with a mouse monoclonal anti-HBsAg (1:1000 dilution, Dako) followed by Alexa Fluor 488 goat anti-mouse IgG (H+L) (1:1000 dilution, Life Technologies). Cells were examined under a confocal microscope (Leica Biosystems).” left out

HIV-1 = settings: TZM-bl cells; strains B12 and SH1.81, 200 TCID50; 4B10 up to 100 μM; luciferase, 48 h post infection
Procedure: The infection of two strains of tat-expressing, replication deficient HIV-1, B12 and SH1.81, was tested on TZM-bl cells harboring HIV-1 LTR-luciferase reporter[30]. Envelope proteins of B12 and SH1.81 were derived from HIV-1 B and A/E recombinant subtype, respectively. […] Forty-eight hours post infection, intracellular luciferase activity was measured with a luciferase assay kit (Promega, Madison, WI).

HBV infection of PTH [8] = system: HBV infection of PTH
Procedure: (§7) Freshly isolated PTH were seeded into collagen-coated 6-well plates (BD Biosciences, San Jose, CA) and maintained in Hepato-Stim Hepatocyte Defined medium (HDM) (BD Biosciences) at 5 × 10^5 cells per well. Twenty-four hours post-seeding, PTH were infected with concentrated viruses prepared from HepAD38 supernatants (genotype D) at a multiplicity of infection (MOI) of 100 GE per cell. […] After incubation at 37 °C overnight, cells were washed 5 times with PBS and cultivated for 12 days. For HBV infection of PHH, freshly prepared PHH were seeded into collagen-coated wells in supplemented WEM at 5 × 10^5 cells per well. […] PTH and PHH culture media were changed every two days, and hepatitis B surface antigen (HBsAg) and e antigen (HBeAg) in collected supernatants were determined using enzyme linked immunosorbent assay (ELISA) kits (Kehua). All infections were repeated at least twice.

HBV infection of PHH [9] = test: HBV infection of primary human hepatocytes; settings: for IC50: pooled patient sera (genotypes B and C), MOI 400, day 14 post infection, ELISA, printed with 'about'
Procedure: as §7

[10] = system: primary mouse hepatocytes (PMH); test: Flow cytometry binding of FITC-labelled peptides to PMH; settings: discussion; Fig. 3A
HepG2 cells = settings: 4B10 0.01 μM, 1 μM and 100 μM, or LA-20; 72 h; CCK-8
Procedure: as §5, §6

[11] = PTH, 4B10 0.01-100 nM or LA-20 100 nM, ELISA

Sequence: LRNIRLRNIRLRNIRLRNIR [4B10]
- HBV-binding activity (HBV particles): showed the highest binding activity
- cytotoxic effect on PHH (PHH): No cytotoxicity was observed
- post-infection HBcAg expression (HBV infection of PTH [1]): dose-dependent decrease in post-infection HBcAg expression
- preS1-binding activity (preS1/2-48^myr-FITC) (preS1/2-48^myr): showed the highest binding activity
- inhibition of binding of preS1/2-48^myr-FITC to PMH [2]: completely blocked
- post-infection HBcAg expression (HBV infection of PHH [3]): dose-dependent decrease in post-infection HBcAg expression
- reduction of PMH-associated virions (HBV attachment to PMH [4]; 0.1 nM): 39%
- reduction of PMH-associated virions (HBV attachment to PMH [4]; 10 nM): 56%
- reduction of PMH-associated virions (HBV attachment to PMH [4]; 1 μM): 74%
- cytotoxic effect on PMH (PMH): No notable cytotoxic effect
- inhibitory effect on infection of VSV-G pseudotyped lentivirus [5]: no inhibitory effect
- HBV attachment to PMH (HBsAg staining) (HBV attachment to PMH [6]): markedly reduced
- HBV attachment to HepG2 cells [7]: inhibited HBV attachment to HepG2 cells
- inhibitory effect on infection of HIV-1 (HIV-1): no inhibitory effect
- inhibition of HBV infection of primary tupaia hepatocytes (HBV infection of PTH [8]): low nanomolar concentrations
- effect on post-infection HBeAg expression (HBV infection of PTH [8]; [11]): dose-dependent decrease
- effect on post-infection HBsAg expression (HBV infection of PTH [8]; [11]): dose-dependent decrease
- IC50 (HBV infection of PTH [8]; infection of PTH): 0.1 to 1 nM
- inhibition of infection by genotype D viruses (HBV infection of PTH [8]; viruses derived from HepAD38 cells): could inhibit the infection of genotype B and C viruses from HBV-infected patients as well as genotype D viruses
- inhibition of HBV infection (in words) (HBV infection of PHH [9]; PHH, 4B10 0.05-500 nM): Dose-dependent and efficient inhibition of HBV infection
- inhibition of HBV infection of primary human hepatocytes (HBV infection of PHH [9]; abstract): low nanomolar concentrations
- IC50 (HBV infection of PHH [9]; read-out: IC50 based on HBeAg measurement, PHH): 0.5 to 5 nM
- IC50 (HBV infection of PHH [9]; read-out: IC50 based on HBsAg measurement, PHH): 0.05 to 0.5 nM
- inhibition of infection by genotype B and C viruses (HBV infection of PHH [9]; viruses from HBV-infected patients): could inhibit the infection of genotype B and C viruses
- binding to primary hepatocytes [10]: does not bind
- cytotoxic effect on HepG2 cells (HepG2 cells): No notable cytotoxic effect
